The record followed here is paper PMC4589676, “Functional characterization and stability improvement of a ‘thermophilic-like’ ene-reductase from Rhodococcus opacus 1CP” (Frontiers in Microbiology, 2015).

The target in test [1] is T1, OYERo2 (Rhodococcus opacus, UniProt A0A1B1KA86).
T1 construct: gene O4328_33150; full length, N-terminal His10-tag kept, codon-optimised synthetic gene (1101 bp) in pET16bP, E. coli BL21 (DE3); 387 residues, theoretical 41,615 Da; variant OYERo2a is GenBank KR349312
Description: flavin absorption spectra (charge-transfer complex). The format is binding. Conditions: phenolic ligand. From the text: flavin absorption spectra (charge-transfer complex) on OYERo2 | OYERo2 forms charge-transfer complexes with phenolic ligands. Next to 4-hydroxybenzaldehyde

Test [2] deals with T2, OYERo2 (Rhodococcus opacus, UniProt A0A1B1KA86, A92R/Q93R/L94I/E95R/Y96E).
T2 construct: gene O4328_33150; full length, N-terminal His10-tag kept, codon-optimised synthetic gene (1101 bp) in pET16bP, E. coli BL21 (DE3); 387 residues, theoretical 41,615 Da; variant OYERo2a is GenBank KR349312
Description: absorption spectra and RP-HPLC of extracted flavin. The format is binding. Conditions: variant OYERo2a; same.

For test [3], the target named is T1, OYERo2. Description: absorption spectra and RP-HPLC of extracted flavin. The format is binding. The following applies: non-covalent, 1:1, co-purified.
Test [4] deals with OYERo2, ene-reductase (old yellow enzyme) from Rhodococcus opacus 1CP (Rhodococcus opacus 1CP). Description: SEC; analytical gel filtration, Superdex 200 HR 10/30, room temperature, 50 mM phosphate buffer pH 7.1 with 150 mM NaCl; 30 uM enzyme, elution buffer with 200 uM NADPH.
Test [5] shares this target. Description: SEC; analytical gel filtration, Superdex 200 HR 10/30, room temperature, 50 mM phosphate buffer pH 7.1 with 150 mM NaCl; lower protein concentration (59 and 30 uM for OYERo2). A general note: SEC sorts molecules by how far they enter the pores of the column.
For test [6] the target is unchanged. Description: SEC; analytical gel filtration, Superdex 200 HR 10/30, room temperature, 50 mM phosphate buffer pH 7.1 with 150 mM NaCl; high protein concentration (119 uM for OYERo2).

T1 sequence (A0A1B1KA86 entry or part of it): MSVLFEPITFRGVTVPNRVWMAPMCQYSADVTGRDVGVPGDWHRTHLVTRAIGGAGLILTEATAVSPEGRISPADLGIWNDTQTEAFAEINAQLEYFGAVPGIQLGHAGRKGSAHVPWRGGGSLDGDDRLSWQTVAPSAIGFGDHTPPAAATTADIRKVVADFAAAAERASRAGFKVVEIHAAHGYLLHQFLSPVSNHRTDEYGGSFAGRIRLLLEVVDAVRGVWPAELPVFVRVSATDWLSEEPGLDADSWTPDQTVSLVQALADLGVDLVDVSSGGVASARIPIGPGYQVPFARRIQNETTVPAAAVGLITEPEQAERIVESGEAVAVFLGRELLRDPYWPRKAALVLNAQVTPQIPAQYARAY
T2 sequence (A0A1B1KA86 entry or part of it A92R/Q93R/L94I/E95R/Y96E): as the sequence (A0A1B1KA86 entry or part of it) above, with A92R, Q93R, L94I, E95R, Y96E counted along it

Take `O=Cc1ccc(O)cc1` [4-hydroxybenzaldehyde]: in test [1], the “flavin absorption spectra (charge-transfer complex)” value was “OYERo2 forms charge-transfer complexes with phenolic ligands. Next to 4-hydroxybenzaldehyde”.
As for `Cc1cc2nc3c(=O)[nH]c(=O)nc-3n(C[C@H](O)[C@H](O)[C@H](O)COP(=O)(O)O)c2cc1C` [FMN], the “absorption spectra and RP-HPLC of extracted flavin” value in test [2] was “RP-HPLC on flavin samples extracted from purified OYERo2 and OYERo2a”; in test [3], “The type of flavin cofactor was identified as FMN using RP-HPLC”.
In general, stoichiometry N refers to a count of units in the complex or per binding partner. With “OYERo2, ene-reductase (old yellow enzyme) from Rhodococcus opacus 1CP”, the values for the stoichiometry N in test [4], in test [5] and in test [6] were 2, 2 and 4, respectively.
